Results on two compounds are retold here after patent US7132258B1, “Nucleic acid encoding vitamin D receptor related polypeptide” (University of Massachusetts, priority 1998, dated 2006).

Entries after “also recorded” stand apart in the source; their conditions may differ.

This assay relates to RAC3 message. Briefly: Northern blot analysis of RAC3 expression in HL-60 cells. The class given is cell-based, human. The procedure:
The expression of RAC3 was examined with Northern blot analysis using standard methods. A single message of about 7.5 kb was detected in human HL60 cells as well as in mouse embryonic tissues. […] Thus, a positive feedback regulatory network may operate in which RAC3 binding to RA-RAR complex activates transcription which, in turn, increases transcription of RAC3.
Cells were treated with different concentration of RA (0, 10, 100, 1000 nM) for a period of 12 hours. In the control group, cells were treated with equal volume of solvent (80% EtOH plus 20% DMSO). Total RNAs were isolated using an RNA isolation kit (RNAzol) and separated on a 1% agarose gel with 2.2 M formaldehyde and blotted onto nylon filters. Filters were hybridized with random-primed ^32P-labeled DNA probes specific for RAC3, Tw2, and SRC1 in hybridization buffer (50% formamide, SX SSPE [1×SSPE is 0.18 M NaCl, 10 mM NaPO4, and 1 mM EDTA at pH 7.7], 2× Denhardt solution, 0.1% SDS, 0.1 mg of sheared herring sperm DNA per ml) at 42° C. overnight. […]
The expression patterns of RAC3 in different human tissues and cancer cells were examined and compared with that of SRC-1 and TIF2. […] Total RNA (20 μg) of HL-60 cells treated with indicated concentrations of atRA for 12 hours or with 1 μM tRA plus 10 μM cycloheximide (CHX) were analyzed for RAC3 message by Northem blot analysis. […]

As for `CC1=C(/C=C/C(C)=C/C=C/C(C)=C/C(=O)O)C(C)(C)CCC1` [atRA, all-trans retinoic acid], the “expression of RAC3” value (HL60 cells treated with atRA) is “up-regulated; also recorded: significantly enhances”.

In the case of `C[C@@H]1C[C@@H]([C@H](O)CC2CC(=O)NC(=O)C2)C(=O)[C@@H](C)C1` [cycloheximide], for the setting “HL60 cells, addition of cycloheximide”, the “effect on stimulation of RAC3 expression by atRA” value was “does not have an effect”.
